Results: patent publication US20040116397A1, “Agents and methods for the prevention of initial onset of cancers, the treatment of cancers, and the recurrence of existing cancers” (priority 2003, published 2004)
“Also recorded” adds a separate entry of the source.

How the values were obtained:
p53 in LNCaP cells = test: p53 EMSA and Western blot of whole cell extracts; assay type: cell-based
Protocol: (§1) FIG. 4 depicts an electrophoretic mobility shift assay (EMSA) of whole cell extracts (prepared from LNCaP and DU145 cells that were untreated (C) or treated (T) with 3 μM 2-ME for 48 h) using p53 consensus oligonucleotide as radiolabled probe. The indicated amounts (μg) of the extract was incubated with approximately 0.2 ng of labeled probe and the DNA-protein complexes were resolved by 4% non-denaturing gel electrophoresis. Unbound (F) and bound complexes (B) are indicated. Lane 1 is free probe; lane 2, 4, 6 and 8 are with 2.5 μg protein; lanes 3, 5, 7 and 9 are with 5 μg protein. Lanes 2, 3, 6 and 7 are untreated; lanes 4, 5, 8 and 9 are treated.
FIG. 5 depicts a Western blot analysis of whole cell extracts from LNCaP and DU145 cells following treatment with 2-ME for 48 hours using a p53 antibody (FL-393, Santa Cruz). 25 μg of extract was fractionated on 10% denaturing gel and transferred to nitrocellulose membrane. After blocking the membrane, it was incubated for 2 hours with the p53 antibody. This was followed by incubation with horseradish peroxidase-conjugated anti-rabbit IgG antibody (Sigma) in the blocking solution. Bound antibody was detected by Supersignal West Pico Chemiluminescent Substrate, following the manufacturer's directions (Pierce, Rockford, Ill.). […]

DU145 cells [1] = test: Cell cycle distribution by flow cytometric analysis (Krishan stain); assay type: cell-based; details: DU145, 3 μM, 16 hours
Protocol: Referring to FIG. 3, since 2-ME inhibited the growth of LNCaP and DU145 cells, the present inventors set out to examine whether 2-ME treatment altered the distribution of cells during cell cycle progression. Logarithmically growing DU145 cells were plated in 60 mm dishes as described above at a density of 10^5 cells per dish. After 24 hours of growth at 37° C. in an incubator with 5% CO2, half the dishes were treated with 3 μM of 2-ME and the other half was left untreated. Cells were observed every 24 hours for morphological changes following treatment with 2-ME. After 16 hours of incubation cells were harvested by trypsinization and the cell pellet was resuspended in 1 ml of Krishan stain and subjected to flow cytometric analysis at the Flow Cytometry facility of the University of Colorado Comprehensive Cancer Center, Denver, Colo. […] This could be due to alteration of expression and/or activities of cell cycle regulatory proteins in the G2/M phase.

DU145 cells [2] = test: Cell growth, CELLTITER96 AQUEOUS ONE tetrazolium assay; assay type: cell-based
Protocol: (§2) Referring to FIG. 1, actively growing LNCaP and DU145 cells were plated in 96-well plates at a density of 10^5 cells per well. After 24 hours in a 37° C. incubator with 5% CO2, the cells were treated with the indicated concentration of 2-ME. Control cells received only the vehicle (DMSO). Cell growth was monitored every 24 hours using the […]96 AQUEOUS ONE solution assay containing a tetrazolium compound (Promega Corporation, Madison, Wis.).
(§3) The assay is based on the principle that actively growing cells generate reducing equivalents such as NADH that is necessary for the cells to reduce the tetrazolium compound to formazan product that is detected by measuring the absorbance at […]. Increase in absorbance indicates cell viability.
(§4) The data reflected in FIG. 1 represents an average of five replicates and the experiment was conducted twice. […] It is known that there are differences of AR and p53 between these two cell types.

p53 in DU145 cells = test: p53 EMSA of whole cell extracts; assay type: cell-based; details: DU145 extract, 3 μM, 48 h
Protocol: as §1
As shown in FIG. 4 (Electrophoretic mobility shift assay (EMSA) of extracts prepared from LNCaP and DU145 cells following treatment with 2-ME using p53 oligonucleotide probe) and FIG. 5 (Western blot analysis of extracts following 2-ME treatment with p53 antibody), the proteins from LNCaP and DU145 cells bound to the p53 consensus sequence (FIG. 4, lanes 2 and 3). […] One would expect to see induced expression of p53 following 2-ME treatment, if it is involved in mediating apoptosis.

endothelial cell = details: background, reference (3); cited from earlier work
epidermal hyperplasia = test: Mouse two-stage carcinogenesis model (DMBA/TPA), skin hyperplasia; assay type: in vivo; details: 4 weeks, Sencar mice
Source text: To test the efficacy of 2-ME in preventing or reversing neoplastic progression, the present inventors have conducted investigations using the well-established mouse two-stage carcinogenesis model. This model was developed to study the complex multistep process of epidermal carcinogenesis since initiation and promotion are involved in the development of cancer in humans. […] Although treatment of mouse skin with a single large dose of DMBA can induce papillomas in about 10-20 weeks and carcinomas in about 20-60 weeks, repetitive doses are necessary to induce tumors at lower levels. No tumors are formed at a sub-threshold dose of DMBA. However, if TPA is applied to the mice initiated with a sub threshold dose of DMBA, multiple papillomas appear after a short latency period, followed by squamous cell carcinomas after a longer period. Tumors cannot be induced with repetitive treatment of TPA in the absence of initiation. Such phenotypic changes produced in the epidermis by TPA treatment are critical for neoplastic progression. One such characteristic feature of neoplastic progression is hyperplasia.
Female Sencar mice were divided into 7 groups each with 5 animals. […]

LNCaP cells = test: Cell growth, CELLTITER96 AQUEOUS ONE tetrazolium assay; assay type: cell-based; details: for inhibition of growth: 72 hours
Protocol: as §2, §3, §4
Cells were treated with either eugenol (0.25, 0.5, 0.75 or 1 mM) or 2-ME (0.5, 1, 2 or 3 mM) or both (0.25, 0.5, 0.75 or 1 mM of eugenol along with 0.5 mM of 2-ME). Cell growth was measured following 72 hours of treatment as described above.

[3] = tested on: prostate cancer cell lines (LNCaP, DU145) and brain and/or nervous system cancer cell line (DAOY); test: Cell proliferation and induction of apoptosis, 2-ME versus 16-ES; assay type: cell-based
Source text: Building on these findings, further experiments have helped to elucidate the structural bases for 2-ME's molecular efficacy. A number of experiments have been conducted using 2-ME and 16-epiestriol (hereinafter “16-ES”), an analogue of 2-ME that lacks the methoxy group at the second position. In a multitude of experiments, using prostate cancer cell lines (both androgen-dependent (LNCaP), and androgen-independent (DU145) cells), and a brain and/or nervous system cancer cell line (DAOY), the present inventors have studied the effects of 2-ME and 16-ES on cell proliferation and the induction of apoptosis, in a number of ways. […] Further, it also indicates efficacy of a series of compounds with various moieties at the second position in the treatment of cancer. […] Thus, the present inventors now propose a method of synthesizing a number of analogues of 2-ME that will exceed the efficacy of 2-ME in the prevention of cancer.

DMBA-TPA induced tumors = test: Regression of DMBA-TPA induced tumors in mice; assay type: in vivo, mouse; details: 2 mg topically twice a week for four weeks
Protocol: Referring to FIG. 12, after 4 weeks, animals were sacrificed and the dorsal skin was used for histology. […] In addition, topical application of 2 mg of 2-ME during tumor initiation-promotion stage inhibited hyperplasia by about 14%. […] In addition, the present inventors have treated mice that have developed the tumors using DMBA-TPA protocol with 2 mg of 2-ME topically twice a week for four weeks to see if tumors regress. During this four-week study, we have noticed that the number of tumors reduced from 10 to 8 in one animal (one such tumor is indicated by an arrow in the mouse II—see FIG. 13) and no change in the other animal.

| Structure (SMILES) | DNA-binding activity to p53 consensus sequence (EMSA) (p53 in LNCaP cells; 3 μM, 48 h) | p53 expression (Western blot) (p53 in LNCaP cells; 48 hours) | population of cells in S phase (DU145 cells [1]) | G2/M population following treatment (DU145 cells [1]; untreated 23%) [%] | G1 population following treatment (DU145 cells [1]; untreated 71%) [%] | inhibition of cell proliferation (DU145 cells [2]; DU145, 2-ME 0.5 to 5 μM, monitored every 24 hours, less sensitive than LNCaP) | loss of DNA-binding activity to p53 consensus sequence (EMSA) (p53 in DU145 cells) | endothelial cell proliferation (endothelial cell) | reduction of hyperplasia (epidermal hyperplasia; topical 2 mg 5 min before DMBA application) [%] | inhibition of hyperplasia (epidermal hyperplasia; topical 2 mg during tumor initiation-promotion stage) | inhibition of growth (LNCaP cells; 0.5 mM of 2-ME) | inhibition of cell proliferation (LNCaP cells; 2-ME 0.5 to 5 μM, monitored every 24 hours) | inhibition of cancerous cell growth [3] | pro-apoptotic effects [3] | size of the tumors (DMBA-TPA induced tumors) | number of tumors after treatment (DMBA-TPA induced tumors; one animal, reduced from 10) | number of tumors, other animal (DMBA-TPA induced tumors; other animal) | IC50 (DU145 cells [2]; Homo sapiens, DU-145, DU145 cells, read-out: concentration necessary for 50% inhibition of growth) [mM] | inhibition of growth (LNCaP cells; 0.25 mM of eugenol) | IC50 (LNCaP cells; Homo sapiens, read-out: concentration necessary for 50% inhibition of growth) [µM] |
| --- | --- | --- | --- | --- | --- | --- | --- | --- | --- | --- | --- | --- | --- | --- | --- | --- | --- | --- | --- | --- |
| COc1cc2c(cc1O)CC[C@@H]1[C@@H]2CC[C@]2(C)[C@@H](O)CC[C@@H]12 [2-ME, 2-methoxyoestradiol] | lost their binding activity | decrease in its expression | no significant change | 46 | 46 | dose-dependent inhibition of cell proliferation | not as dramatic as that of LNCaP extracts | inhibit endothelial cell proliferation | 26 | about 14% | about 20% | dose-dependent inhibition of cell proliferation | significantly inhibits cancerous cell growth; also recorded: inhibits the growth | has pro-apoptotic effects | reduction in the size of the tumors | 8 | no change | – | – | – |
| C[C@]12CC[C@@H]3c4ccc(O)cc4CC[C@H]3[C@@H]1C[C@H](O)[C@@H]2O [16-ES, 16-epiestriol] | – | – | – | – | – | – | – | – | – | – | – | – | does not | – | – | – | – | – | – | – |
| C=CCc1ccc(O)c(OC)c1 [eugenol] | – | – | – | – | – | – | – | – | – | – | – | – | – | – | – | – | – | > 2 | about 30% | ~750 |
